The record followed here is article PMC9764071 (Acta Pharmaceutica Sinica. B, 2022).

Some results are limits rather than exact numbers.

The test system of data set [1] is Lewis lung carcinoma (LLC) cells overexpressing hPD-L1 (LLC-hPD-L1). Description: In vivo antitumor activity on Balb/c-nude mice. The settings on record: P39 4, 10 and 25 mg/kg.
For data set [2], the target named is PD-1/PD-L1 interaction (Homo sapiens, UniProt Q9NZQ7). Put plainly: TR-FRET assay of PD-1/PD-L1 interaction inhibition. In kind it is binding. Background: In TR-FRET formats the signal depends on donor and acceptor labels being close together.
Data set [3] concerns Lewis lung carcinoma (LLC) cells overexpressing hPD-L1 (LLC-hPD-L1). Put plainly: In vivo antitumor activity, humanized LLC-hPD-L1 mouse model. Set-up: species or system hPD-1-knockin C57BL/6 mice.
The subject of data set [4] is PD-1/PD-L1 interaction, H358 cells. Put plainly: PD-1/PD-L1 blockade bioassay. Type of data set: cell-based. The following applies: P39-treated H358 cells versus untreated cells; concentration-dependent.
Data set [5] relates to MC38 tumor cells. Description: In vivo antitumor activity, MC38 mouse model. Set-up: species or system C57BL/6 mice.
In data set [6] the target is PD-1/PD-L1 interaction on H460 cells (Homo sapiens, UniProt Q9NZQ7). Type of data set: cell-based.
The target in data set [7] is PD-1/PD-L1 interaction on MDA-MB-231 cells (Homo sapiens, UniProt Q9NZQ7). In kind it is cell-based. The following applies: P39 0–200 nmol/L, 24 h; immunostaining.
The nature of data set [8]: Acute toxicity test. In kind it is in vivo, ICR mice.
The test system of data set [9] is T cells in TILs. Description: Flow cytometry of tumor infiltrating lymphocytes, MC38 model. Type of data set: in vivo, C57BL/6 mice. On the technique in general: A flow cytometer gives signals particle by particle.
Data set [10] deals with A375 cells. Put plainly: Cytotoxicity evaluation by Real-Time Cell Analyzing. Type of data set: cell-based. The following applies: 20 μmol/L of compound; RTCA; versus control group.
Data set [11] relates to H460 cells. Description: PBMCs-mediated tumor cell-killing assay. Type of data set: cell-based, human. The settings on record: P39 100 or 200 nmol/L, 24 h.
Data set [12] has as its system CD8, IFN-γ and GzmB expression. Put plainly: Immunohistochemistry. In kind it is in vivo, mice. The following applies: IHC of tumor tissues; Fig. S8.

PD-1/PD-L1 interaction, sequence (Q9NZQ7 19-238 limits assumed): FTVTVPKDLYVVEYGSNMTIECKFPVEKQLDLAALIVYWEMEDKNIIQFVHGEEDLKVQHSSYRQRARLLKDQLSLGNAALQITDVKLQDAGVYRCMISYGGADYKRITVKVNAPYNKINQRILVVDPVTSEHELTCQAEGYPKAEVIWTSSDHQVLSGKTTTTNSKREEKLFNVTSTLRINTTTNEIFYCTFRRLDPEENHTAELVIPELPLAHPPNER
PD-1/PD-L1 interaction on H460 cells, sequence (Q9NZQ7 19-290): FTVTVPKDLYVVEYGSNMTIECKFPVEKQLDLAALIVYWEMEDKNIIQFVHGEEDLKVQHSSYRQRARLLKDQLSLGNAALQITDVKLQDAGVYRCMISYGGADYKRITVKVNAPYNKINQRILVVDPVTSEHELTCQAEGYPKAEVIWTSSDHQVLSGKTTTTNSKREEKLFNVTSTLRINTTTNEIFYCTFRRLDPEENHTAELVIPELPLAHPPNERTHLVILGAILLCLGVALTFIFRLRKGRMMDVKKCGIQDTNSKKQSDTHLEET
PD-1/PD-L1 interaction on MDA-MB-231 cells, sequence (Q9NZQ7 19-290): as above

For `Cc1c(-c2ccccc2)cccc1N1C(=O)c2cc(CN[C@H](C(=O)O)C(C)O)c(OCc3cccc(C#N)c3)cc2C1=O` (some centres unmarked) [P39], the “ability to clear tumor cells in immunodeficient mice” value in data set [1] is “no ability to clear tumor cells”. In data set [2], the IC50 turned out to be 8.9 nM. For the same molecule, the “tumor inhibitory effect compared with BMS202 (10 mg/kg)” value in [3] (P39 25 mg/kg) is given as “much better activity”. In [3] (high dose, 25 mg/kg, 12 days of administration), this molecule returned a tumor inhibition rate of 79.0%. Besides, the “inhibition rate of tumor growth” value in [3] (low dose, 10 mg/kg) was 66.2%. The transcriptional-mediated bioluminescent signal result in data set [4] is recorded as “significant increase”. Moreover, the “tumor volume growth inhibition” value in data set [5] (10 mg/kg i.p. once daily, 4 weeks) came to 54.9%; in data set [5] (25 mg/kg i.p. once daily, 4 weeks), 68.3%. Further, the final tumor weight result in [5] (10 and 25 mg/kg groups versus control group) is on record as “significantly decreased”. The “weight loss or death of mice during treatment” value in [5] (10 and 25 mg/kg i.p. once daily, 4 weeks) is “No weight loss or death of mice”. For the same molecule, the “inhibitory activity on PD-1 binding to tumor cells compared to BMS202” value in [6] (200 nmol/L, Fig. 4A and B) is on record as “stronger inhibitory activity compared to the positive compound BMS202”. For the same molecule, in [6] (P39 0–200 nmol/L, 24 h, flow cytometry and immunostaining), the “binding capacity of PD-1 to H460 cells” value is “significantly decreased in a dose-dependent manner”. In addition, the “binding capacity of PD-1 to MDA-MB-231 cells” value in data set [7] was “significantly decreased in a dose-dependent manner”. For the same molecule, the 50% lethal dose (LD50) at 14 days in data set [8] (ICR, mouse, in vivo, po) is more than 5000 mg/kg. The “mortality and body weight loss” value in data set [8] (oral single dose 5000 mg/kg, observed two weeks) was “no mortality and obvious body weight loss”. In addition, in data set [9] (P39-treated mice versus control group, Fig. S6C), the “population of CD4+ T cells in the tumor tissue” value is on record as “did not change compared to the control group”. Besides, the “ratio of CD8+ to CD3+ T cells in the tumor” value in data set [9] (P39-treated mice, Fig. S6B and 6E) was “greatly increased”. The “cytotoxicity, real-time growth of A375 cells” value (from here on “cytotoxicity, real-time growth”) in data set [10] is reported as “essentially non-toxic to A375 cells”. Also, in data set [11], the “sensitivity of tumor cells to T cell killing (activated human PBMCs)” value is “greatly increased”. The “expression of CD8, IFN-γ, and GzmB” value in data set [12] is given as “increased expression”.
`Cc1c(-c2ccccc2)cccc1N1C(=O)c2cc(CN[C@@H](Cc3ccccc3)C(=O)OC(C)(C)C)c(OCc3cccc(C#N)c3)cc2C1=O` [P40] returned an IC50 in [2] of 1690 nM.
Same read-out and setting: with `Cc1c(-c2ccccc2)cccc1N1C(=O)c2cc(CN[C@H](C(=O)OC(C)(C)C)C(C)O)c(OCc3cccc(C#N)c3)cc2C1=O` (some centres unmarked) [P38] the figure was more than 10000 nM.
Same read-out and setting: then `Cc1c(-c2ccccc2)cccc1N1C(=O)c2cc(CN(C)CCO)c(OCc3cccc(C#N)c3)cc2C1=O` [P19], with 150 nM.
On the same count and under the same terms, with `Cc1c(-c2ccccc2)cccc1N1C(=O)c2ccc(OCc3cccc(C#N)c3)c(CNC3CCOCC3)c2C1=O` [P9] the figure was 1140 nM; with `Cc1c(-c2ccccc2)cccc1N1C(=O)c2cc(CNCCN(C)C)c(OCc3cccc(C#N)c3)cc2C1=O` [P21], 189 nM.
In turn, `Cc1c(-c2ccccc2)cccc1N1C(=O)c2cc(CN[C@@H](C)C(=O)OC(C)(C)C)c(OCc3cccc(C#N)c3)cc2C1=O` [P36] yielded an IC50 in data set [2] of 1670 nM.
In data set [2], `Cc1c(-c2ccccc2)cccc1N1C(=O)c2cc(CN(C)CC(=O)OC(C)(C)C)c(OCc3cccc(C#N)c3)cc2C1=O` [P34] yielded an IC50 of more than 10000 nM.
The same measure, in the same setting: with `Cc1c(-c2ccccc2)cccc1N1C(=O)c2ccc(OCc3cccc(C#N)c3)c(CN3CCC[C@H]3C(=O)O)c2C1=O` [P10] the figure was 4380 nM.
Take `Cc1c(-c2ccccc2)cccc1N1C(=O)c2cc(CN3CCC[C@H]3C(=O)O)c(OCc3cccc(C#N)c3)cc2C1=O` [P8]: the IC50 in [2] is 52.1 nM. Moreover, the “cytotoxicity, real-time growth” value in data set [10] was “essentially non-toxic to A375 cells”.
Take `Cc1c(-c2ccccc2)cccc1N1C(=O)c2cc(CN3CC(O)C3)c(OCc3cccc(C#N)c3)cc2C1=O` [P25]: the IC50 in data set [2] stood at 187 nM.
The same measure, in the same setting: then `N#Cc1cccc(COc2cc3c(cc2CN2CCC[C@H]2C(=O)O)C(=O)N(c2cccc(-c4ccccc4)c2Cl)C3=O)c1` [P14], with 22.1 nM.
`Cc1c(-c2ccccc2)cccc1N1C(=O)c2cc(CNCCO)c(OCc3ccc(C#N)cc3)cc2C1=O` [P4] showed an IC50 in [2] of 153 nM. Also, the “cytotoxicity, real-time growth” value in data set [10] is reported as “essentially non-toxic to A375 cells”.
Regarding `Cc1c(-c2ccccc2)cccc1N1C(=O)c2cc(CN3CC(C(=O)O)C3)c(OCc3cccc(C#N)c3)cc2C1=O` [P27], in data set [2], the IC50 amounted to 42.4 nM.
Consider `Cc1c(-c2ccccc2)cccc1N1C(=O)c2cc(CN3CCC[C@H]3C(N)=O)c(OCc3cccc(C#N)c3)cc2C1=O` [P26], for which it took 564 nM to reach half-maximal inhibition in [2] (IC50).
On the same count and under the same terms, then `COC(=O)CNCc1cc2c(cc1OCc1cccc(C#N)c1)C(=O)N(c1cccc(-c3ccccc3)c1C)C2=O` [P31], with 836 nM; and `Cc1c(-c2ccccc2)cccc1N1C(=O)c2cc(CN3CC[C@@H](O)C3)c(OCc3cccc(C#N)c3)cc2C1=O` [P23], with 216 nM.
Regarding `Cc1c(-c2ccccc2)cccc1N1C(=O)c2cc(CNCCO)c(OCc3ccccc3)cc2C1=O` [P5], the midpoint of inhibition in [2], the IC50, lay at 216 nM.
`Cc1c(-c2ccccc2)cccc1N1C(=O)c2cc(CN(C)CC(=O)O)c(OCc3cccc(C#N)c3)cc2C1=O` [P35] showed an IC50 in data set [2] of 46.6 nM.
Turning to `Cc1c(-c2ccccc2)cccc1N1C(=O)c2cc(CN[C@@H](CO)C(=O)O)c(OCc3cccc(C#N)c3)cc2C1=O` [P30], the IC50 in data set [2] came out at 14 nM. For the same molecule, the “cytotoxicity, real-time growth” value in data set [10] is listed as “essentially non-toxic to A375 cells”.
The molecule `Cc1c(-c2ccccc2)cccc1N1C(=O)c2cc(CNCCO)c(OCc3ccccc3C#N)cc2C1=O` [P3] displayed an IC50 in data set [2] of 171 nM. The “cytotoxicity, real-time growth” value in [10] is “essentially non-toxic to A375 cells”.
In [2], `N#Cc1cccc(COc2cc3c(cc2CN2CCCC[C@H]2C(=O)O)C(=O)N(c2cccc(-c4ccccc4)c2C#N)C3=O)c1` [P12] returned an IC50 of 100 nM.
`Cc1c(-c2ccccc2)cccc1N1C(=O)c2cc(CNCCO)c(OCc3cccc(C#N)c3)cc2C1=O` [P1] yielded an IC50 in [2] of 45.4 nM. Also, the “cytotoxicity, real-time growth” value in data set [10] is “essentially non-toxic to A375 cells”.
`Cc1c(-c2ccccc2)cccc1N1C(=O)c2cc(CNCCO)c(OCc3ccc(C(C)C)cc3)cc2C1=O` [P6] gave an IC50 in data set [2] of 921 nM.
In the case of `Cc1c(-c2ccccc2)cccc1N1C(=O)c2cc(CN[C@@H](C)C(=O)O)c(OCc3cccc(C#N)c3)cc2C1=O` [P37], the IC50 in data set [2] was determined as 11.6 nM. In data set [10], the “cytotoxicity, real-time growth” value is recorded as “essentially non-toxic to A375 cells”.
In turn, `Cc1c(-c2ccccc2)cccc1N1C(=O)c2cc(CNC3CCOCC3)c(OCc3cccc(C#N)c3)cc2C1=O` [P7] gave an IC50 in [2] of 45.6 nM.
For the molecule `Cc1c(-c2ccccc2)cccc1N1C(=O)c2cc(CNCC(=O)OC(C)(C)C)c(OCc3cccc(C#N)c3)cc2C1=O` [P32], 1160 nM corresponded to half-maximal inhibition in [2] (IC50).
`Cc1c(-c2ccccc2)cccc1N1C(=O)c2cc(CNCC(=O)O)c(OCc3cccc(C#N)c3)cc2C1=O` [P33] returned an IC50 in data set [2] of 13.3 nM. Besides, the “cytotoxicity, real-time growth” value in data set [10] is on record as “essentially non-toxic to A375 cells”.
`N#Cc1cccc(COc2cc3c(cc2CN2CCC[C@H]2C(=O)O)C(=O)N(c2cccc(-c4ccccc4)c2F)C3=O)c1` [P16] showed an IC50 in data set [2] of 31.6 nM.
`Cc1c(-c2ccccc2)cccc1N1C(=O)c2cc(CN3CCOCC3)c(OCc3cccc(C#N)c3)cc2C1=O` [P24]: the IC50 in [2] amounted to 738 nM.
In the case of `Cc1c(-c2ccccc2)cccc1N1C(=O)c2cc(CN[C@@H](Cc3ccccc3)C(=O)O)c(OCc3cccc(C#N)c3)cc2C1=O` [P41], the IC50 in [2] was found to be 527 nM.
The same measure, in the same setting: then `N#Cc1cccc(COc2cc3c(cc2CNC2CCOCC2)C(=O)N(c2cccc(-c4ccccc4)c2Cl)C3=O)c1` [P13], with 39.3 nM; and `CC(=O)NCCNCc1cc2c(cc1OCc1cccc(C#N)c1)C(=O)N(c1cccc(-c3ccccc3)c1C)C2=O` [P18], with 79.1 nM; and `Cc1c(-c2ccccc2)cccc1N1C(=O)c2cc(CNCCNC(=O)OC(C)(C)C)c(OCc3cccc(C#N)c3)cc2C1=O` [P20], with 395 nM.
On the same count and under the same terms, then `Cc1c(-c2ccccc2)cccc1N1C(=O)c2cc(CN3CCC[C@H]3CO)c(OCc3cccc(C#N)c3)cc2C1=O` [P22], with 251 nM; and `Cc1c(-c2ccccc2)cccc1N1C(=O)c2cc(CN3CCCC[C@H]3C(=O)O)c(OCc3cccc(C#N)c3)cc2C1=O` [P11], with 117 nM; and `Cc1c(-c2ccccc2)cccc1N1C(=O)c2cc(CN[C@@H](CO)C(=O)OC(C)(C)C)c(OCc3cccc(C#N)c3)cc2C1=O` [P29], with 607 nM.
Turning to `N#Cc1cccc(COc2cc3c(cc2CNC2CCOCC2)C(=O)N(c2cccc(-c4ccccc4)c2F)C3=O)c1` [P15], in data set [2], the IC50 came to 58.7 nM. Also, the “cytotoxicity, real-time growth” value in [10] is recorded as “essentially non-toxic to A375 cells”.

A word on the IC50: it is the concentration at which inhibition is half-maximal. Low values mean greater potency in that assay, high ones weaker potency in that assay. The LD50 is the dose at which mortality reaches 50%. Low values mean a more toxic substance, high ones a less toxic substance.
